In patent US20080064760A1, “Spontaneously Dispersible Pharmaceutical Composition” (priority 2004, published 2008):
≈ marks a conversion by molar mass, not a printed value.

Key:
Solubility of Compound I = format: physicochemical
Procedure: (§1) The melting range of Compound I is from 120.5-151° C. In both Samples 4A and 4B, the drug loading is 4% or 20 mg/capsule.

Log P in octanol = format: physicochemical
Procedure: as §1

## COC(=O)N[C@]1(C)Cc2ccc(NC(=O)c3cccc(C)c3-c3ccc(C(F)(F)F)cc3)cc2C1 [Compound I]
Solubility of Compound I
  solubility: 0.17 µg/mL (≈ 0.352 µM)
Log P in octanol
  Log P in octanol: 4.66
